pIC50: −log10 of the molar value. Values joined by “and” are separate entries in the source; they are usually repeats but may differ in a detail not shown here. Equal entries are not always repeated. Where two headings read alike, the source gives them in different places.
Key:
[1] = test system: A/H1N1pdm09 neuraminidase; type: biochemical, influenza A/H1N1pdm09 virus
[2] = target: A/H3N2 neuraminidase; type: biochemical, influenza A/H3N2 virus
[3] = test system: influenza B neuraminidase; type: biochemical, influenza B virus
[4] = read-out: IC50 (nM), second column without sub-head (median IC50 value)

Row | Structure (SMILES) | reduced susceptibility class (RI/HRI, WHO criteria) [1] | pIC50 ([1]; read-out: median IC50 values) | IC50 ([2]; read-out: IC50 (nM), median IC50 value (unheaded second column)) [nM] | IC50 [2, 4] [nM] | IC50 ([2]; read-out: IC50 (nM), second unheaded column: median IC50 value) [nM] | pIC50 ([2]; read-out: median IC50 value) | IC50 ([2]; read-out: median IC50 value (unheaded second column under IC50 (nM))) [nM] | Fold change (IC50 / median IC50) [3] | Fold change (ratio of IC50 to the median IC50 value) [3] | pIC50 ([3]; read-out: median IC50 values) | pIC50 ([2]; read-out: median IC50 values)
1 | CCC(CC)[C@H](NC(C)=O)[C@@H]1[C@H](O)[C@@H](C(=O)O)C[C@H]1N=C(N)N [Peramivir, peramivir hydrate] | RI (key: For A viruses, reduced inhibition (RI) was defined as a 10‐fold to 100‐fold increase in IC50 values; highly reduced inhibition (HRI) was defined as more than 100‐fold increase in IC50 values) | 9.52 and 9.30 and 9.40 | 1 | 0.8 | 0.7 | 9.15 | 0.7 | 0.9 and 0.762 and 1.0 and 0.857 and 0.667 and 1.2 and 1.1 and 0.952 | 0.8 and 1.1 and 0.7 and 0.76 and 1.0 and 1.3 and 1.2 and 0.9 | 8.60 and 8.68 | 
2 | CCOC(=O)C1=C[C@@H](OC(CC)CC)[C@H](NC(C)=O)[C@@H](N)C1 [Oseltamivir, oseltamivir phosphate] |  |  |  |  |  |  |  |  |  |  | 8.96
3 | CC(=O)N[C@H]1[C@H]([C@H](O)[C@H](O)CO)OC(C(=O)O)=C[C@@H]1N=C(N)N [Zanamivir, zanamivir hydrate] |  |  |  | 2.2 |  | 8.80 |  |  |  |  | 8.62

From publication PMC6379637, “Consecutive influenza surveillance of neuraminidase mutations and neuraminidase inhibitor resistance in Japan” (Influenza and Other Respiratory Viruses, 2019)
